Measurements as given in US20120029187A1, “HALOALKYLSULFONANILIDE DERIVATIVE” (Nissan Chemical Industries, Ltd., priority 2009, published 2012).

Assays:
Type in all cases: in vivo
[1] = tested on: Italian ryegrass; assay: Test Example 4: herbicidal effect in foliage treatment; conditions: dose 6.3 g/a, three weeks after application
In short: (§1)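 Foliar spray, post-emergence: 14-day-old greenhouse plants (25–30° C, diluvial soil) treated with water-diluted EC at set g/a doses; visual herbicidal score at 3 wk post-application.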

[2] = tested on: velvetleaf; assay: as above; conditions: dose 6.3 g/a, three weeks after application
In short: as §1

[3] = tested on: posumbu knotweed; assay: as above; conditions: dose 6.3 g/a, three weeks after application
In short: as §1

[4] = tested on: common lambsquater; assay: as above; conditions: dose 6.3 g/a, three weeks after application
In short: as §1

[5] = tested on: redroot pigweed; assay: as above; conditions: dose 6.3 g/a, three weeks after application
In short: as §1

[6] = tested on: beadstraw; assay: as above; conditions: dose 6.3 g/a, three weeks after application
In short: as §1

[7] = tested on: common ragweed; assay: as above; conditions: dose 6.3 g/a, three weeks after application
In short: as §1

[8] = tested on: barnyardgrass; assay: as above; conditions: dose 6.3 g/a, three weeks after application
In short: as §1

[9] = tested on: common chickweed; assay: as above; conditions: dose 6.3 g/a, three weeks after application
In short: as §1

[10] = tested on: large crabgrass; assay: as above; conditions: dose 6.3 g/a, three weeks after application
In short: as §1

[11] = tested on: wild oat; assay: as above; conditions: dose 6.3 g/a, three weeks after application
In short: as §1

[12] = tested on: water foxtail; assay: as above; conditions: dose 6.3 g/a, three weeks after application
In short: as §1

[13] = tested on: giant foxtail; assay: as above; conditions: dose 6.3 g/a, three weeks after application
In short: as §1

[14] = tested on: bulrush; assay: Test Example 1: herbicidal effects in preemergence treatment under submerged conditions; conditions: dose 2.52 g/a
In short: (§2)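 Scoring 0 (<5% mortality) to 5 (≥90%) was done three weeks after preemergence application to the water surface of submerged (4 cm) alluvial soil, doses given as g per are. Weeds were seeded and 2.5-leaf rice transplanted on the treatment day; greenhouse at 25–30 °C.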

[15] = tested on: barnyardgrass; assay: as above; conditions: dose 2.52 g/a
In short: as §2

[16] = tested on: ducksalad; assay: as above; conditions: dose 2.52 g/a
In short: as §2

[17] = tested on: Italian ryegrass; assay: Test Example 3: herbicidal effects in soil treatment; conditions: dose 6.3 g/a
In short: (§3)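 Seeds were sown in sterilized diluvial soil and covered with about 1.5 cm of soil. Compounds, formulated as emulsifiable concentrates and diluted with water, were sprayed evenly over the soil surface at set doses in g/a. Herbicidal effect was scored on a rating scale three weeks later.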

[18] = tested on: velvetleaf; assay: as above; conditions: dose 6.3 g/a
In short: as §3

[19] = tested on: posumbu knotweed; assay: as above; conditions: dose 6.3 g/a
In short: as §3

[20] = tested on: common lambsquater; assay: as above; conditions: dose 6.3 g/a
In short: as §3

[21] = tested on: redroot pigweed; assay: as above; conditions: dose 6.3 g/a
In short: as §3

[22] = tested on: common ragweed; assay: as above; conditions: dose 6.3 g/a
In short: as §3

[23] = tested on: barnyardgrass; assay: as above; conditions: dose 6.3 g/a
In short: as §3

[24] = tested on: common chickweed; assay: as above; conditions: dose 6.3 g/a
In short: as §3

[25] = tested on: large crabgrass; assay: as above; conditions: dose 6.3 g/a
In short: as §3

[26] = tested on: wild oat; assay: as above; conditions: dose 6.3 g/a
In short: as §3

[27] = tested on: water foxtail; assay: as above; conditions: dose 6.3 g/a
In short: as §3

[28] = tested on: giant foxtail; assay: as above; conditions: dose 6.3 g/a
In short: as §3

[29] = tested on: bulrush; assay: Test Example 2: herbicidal effects during the vegetation period under submerged conditions; conditions: treatment during the vegetation period under submerged conditions; dose 2.52 g/a
In short: (§4)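 Barnyardgrass, bulrush and ducksalad were co-sown in alluvial soil flooded to 4 cm and grown in a greenhouse at 25 to 30° C. At the 1- or 2-leaf stage, water-diluted emulsifiable concentrates went onto the water surface at set doses (g/a). Herbicidal effect was scored three weeks later on a graded scale.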

[30] = tested on: barnyardgrass; assay: as above; conditions: treatment during the vegetation period under submerged conditions; dose 2.52 g/a
In short: as §4

[31] = tested on: ducksalad; assay: as above; conditions: treatment during the vegetation period under submerged conditions; dose 2.52 g/a
In short: as §4

[32] = tested on: transplanted rice; assay: Test Example 1: preemergence treatment under submerged conditions, effect on crop; conditions: dose 2.52 g/a
In short: as §2

## CCOC(=O)N(c1ccccc1CN1CCS(=O)(=O)CC1=O)S(=O)(=O)C(F)(F)F [Compound I-19, 4-[2-(N-ethoxycarbonyl-N-trifluoromethanesulfonyl)aminobenzyl]-1,4-thiazinan-1,1-dioxide-3-one]
[1]
  H: Italian ryegrass, herbicidal effect: 3 (mortality of at least 40% and less than 70%)
[2]
  I: velvetleaf, herbicidal effect: 3 (mortality of at least 40% and less than 70%)
[3]
  M: posumbu knotweed, herbicidal effect: 3 (mortality of at least 40% and less than 70%)
[4]
  L: common lambsquater, herbicidal effect: 4 (mortality of at least 70% and less than 90%)
[5]
  K: redroot pigweed, herbicidal effect: 4 (mortality of at least 70% and less than 90%)
[6]
  O: beadstraw, herbicidal effect: 4 (mortality of at least 70% and less than 90%)
[7]
  J: common ragweed, herbicidal effect: 4 (mortality of at least 70% and less than 90%)
[8]
  A: barnyardgrass, herbicidal effect: 4 (mortality of at least 70% and less than 90%)
[9]
  N: common chickweed, herbicidal effect: 4 (mortality of at least 70% and less than 90%)
[10]
  D: large crabgrass, herbicidal effect: 4 (mortality of at least 70% and less than 90%)
[11]
  F: wild oat, herbicidal effect: 0 (mortality of less than 5% (almost ineffective))
[12]
  G: water foxtail, herbicidal effect: 5 (mortality of 90% or above (nearly complete death))
[13]
  E: giant foxtail, herbicidal effect: 4 (mortality of at least 70% and less than 90%)
[14]
  B: bulrush, herbicidal effect (evaluation scale 0-5): 5 (mortality of 90% or above (nearly complete death))
[15]
  A: barnyardgrass, herbicidal effect (evaluation scale 0-5): 5 (mortality of 90% or above (nearly complete death))
[16]
  C: ducksalad, herbicidal effect (evaluation scale 0-5): 5 (mortality of 90% or above (nearly complete death))
[17]
  H: Italian ryegrass, herbicidal effect (evaluation scale 0-5): 2 (mortality of at least 20% and less than 40%)
[18]
  I: velvetleaf, herbicidal effect (evaluation scale 0-5): 2 (mortality of at least 20% and less than 40%)
[19]
  M: posumbu knotweed, herbicidal effect (evaluation scale 0-5): 4 (mortality of at least 70% and less than 90%)
[20]
  L: common lambsquater, herbicidal effect (evaluation scale 0-5): 5 (mortality of 90% or above (nearly complete death))
[21]
  K: redroot pigweed, herbicidal effect (evaluation scale 0-5): 4 (mortality of at least 70% and less than 90%)
[22]
  J: common ragweed, herbicidal effect (evaluation scale 0-5): 4 (mortality of at least 70% and less than 90%)
[23]
  A: barnyardgrass, herbicidal effect (evaluation scale 0-5): 4 (mortality of at least 70% and less than 90%)
[24]
  N: common chickweed, herbicidal effect (evaluation scale 0-5): 5 (mortality of 90% or above (nearly complete death))
[25]
  D: large crabgrass, herbicidal effect (evaluation scale 0-5): 4 (mortality of at least 70% and less than 90%)
[26]
  F: wild oat, herbicidal effect (evaluation scale 0-5): 0 (mortality of less than 5% (almost ineffective))
[27]
  G: water foxtail, herbicidal effect (evaluation scale 0-5): 5 (mortality of 90% or above (nearly complete death))
[28]
  E: giant foxtail, herbicidal effect (evaluation scale 0-5): 4 (mortality of at least 70% and less than 90%)
[29]
  B: bulrush, herbicidal effect (evaluation scale 0-5): 5 (mortality of 90% or above (nearly complete death))
[30]
  A: barnyardgrass, herbicidal effect (evaluation scale 0-5): 3 (mortality of at least 40% and less than 70%)
[31]
  C: ducksalad, herbicidal effect (evaluation scale 0-5): 4 (mortality of at least 70% and less than 90%)
[32]
  a: transplanted rice, effect on crop (evaluation scale 0-5): 0 (mortality of less than 5% (almost ineffective))

## O=C1CCOCN1Cc1ccccc1NS(=O)(=O)C(F)(F)F [II-1]
[1]
  H: Italian ryegrass, herbicidal effect: 4 (mortality of at least 70% and less than 90%)
[2]
  I: velvetleaf, herbicidal effect: 5 (mortality of 90% or above (nearly complete death))
[3]
  M: posumbu knotweed, herbicidal effect: 0 (mortality of less than 5% (almost ineffective))
[4]
  L: common lambsquater, herbicidal effect: 4 (mortality of at least 70% and less than 90%)
[5]
  K: redroot pigweed, herbicidal effect: 0 (mortality of less than 5% (almost ineffective))
[6]
  O: beadstraw, herbicidal effect: 4 (mortality of at least 70% and less than 90%)
[7]
  J: common ragweed, herbicidal effect: 4 (mortality of at least 70% and less than 90%)
[8]
  A: barnyardgrass, herbicidal effect: 5 (mortality of 90% or above (nearly complete death))
[9]
  N: common chickweed, herbicidal effect: 4 (mortality of at least 70% and less than 90%)
[10]
  D: large crabgrass, herbicidal effect: 5 (mortality of 90% or above (nearly complete death))
[11]
  F: wild oat, herbicidal effect: 1 (mortality of at least 5% and less than 20%)
[12]
  G: water foxtail, herbicidal effect: 5 (mortality of 90% or above (nearly complete death))
[13]
  E: giant foxtail, herbicidal effect: 5 (mortality of 90% or above (nearly complete death))
[14]
  B: bulrush, herbicidal effect (evaluation scale 0-5): 5 (mortality of 90% or above (nearly complete death))
[15]
  A: barnyardgrass, herbicidal effect (evaluation scale 0-5): 5 (mortality of 90% or above (nearly complete death))
[16]
  C: ducksalad, herbicidal effect (evaluation scale 0-5): 5 (mortality of 90% or above (nearly complete death))
[17]
  H: Italian ryegrass, herbicidal effect (evaluation scale 0-5): 3 (mortality of at least 40% and less than 70%)
[18]
  I: velvetleaf, herbicidal effect (evaluation scale 0-5): 5 (mortality of 90% or above (nearly complete death))
[19]
  M: posumbu knotweed, herbicidal effect (evaluation scale 0-5): 1 (mortality of at least 5% and less than 20%)
[20]
  L: common lambsquater, herbicidal effect (evaluation scale 0-5): 5 (mortality of 90% or above (nearly complete death))
[21]
  K: redroot pigweed, herbicidal effect (evaluation scale 0-5): 1 (mortality of at least 5% and less than 20%)
[22]
  J: common ragweed, herbicidal effect (evaluation scale 0-5): 5 (mortality of 90% or above (nearly complete death))
[23]
  A: barnyardgrass, herbicidal effect (evaluation scale 0-5): 5 (mortality of 90% or above (nearly complete death))
[24]
  N: common chickweed, herbicidal effect (evaluation scale 0-5): 5 (mortality of 90% or above (nearly complete death))
[25]
  D: large crabgrass, herbicidal effect (evaluation scale 0-5): 5 (mortality of 90% or above (nearly complete death))
[26]
  F: wild oat, herbicidal effect (evaluation scale 0-5): 0 (mortality of less than 5% (almost ineffective))
[27]
  G: water foxtail, herbicidal effect (evaluation scale 0-5): 5 (mortality of 90% or above (nearly complete death))
[28]
  E: giant foxtail, herbicidal effect (evaluation scale 0-5): 5 (mortality of 90% or above (nearly complete death))
[29]
  B: bulrush, herbicidal effect (evaluation scale 0-5): 5 (mortality of 90% or above (nearly complete death))
[30]
  A: barnyardgrass, herbicidal effect (evaluation scale 0-5): 5 (mortality of 90% or above (nearly complete death))
[31]
  C: ducksalad, herbicidal effect (evaluation scale 0-5): 5 (mortality of 90% or above (nearly complete death))
[32]
  a: transplanted rice, effect on crop (evaluation scale 0-5): 3 (mortality of at least 40% and less than 70%)
